# pIC50: −log10 of the molar value.
# Assays:
# [1] = molecular target: human immuno proteasome (LMP7) (Homo sapiens (Human), UniProt P28062); test: Determination of LMP7 activity (fluorescence intensity assay, Suc-LLVY-AMC); assay type: biochemical; settings: for Selectivity LMP7 vs Beta5: LMP7 versus Beta5, incubation for 20 minutes; for pIC50: incubation for 20 minutes
# Protocol: Determination of LMP7 Activity:
# Measurement of LMP7 inhibition is performed in 384 well format based on fluorescence intensity assay.
# (§1) Purified human immuno proteasome (0.25 nM) and serial diluted compounds in DMSO (range of concentrations from 30 μM to 15 pM) or controls are incubated for 20 minutes or 120 minutes (long incubation) at 25° C. in assay buffer containing 50 mM Tris pH 7.4, 0.03% SDS, 1 mM EDTA and 1% DMSO. The reaction is initiated by the addition of the fluorogenic peptide substrate, Suc-LLVY-AMC (Bachem 1-1395), at a concentration of 40 μM. After 60 minutes of incubation at 37° C., fluorescence intensity is measured at λex=350 nm and λem=450 nm with a fluorescence reader (Perkin Elmer Envision reader or equivalent).
# (§2) Unless indicated otherwise the results are obtained after incubation for 20 minutes.
# [2] = molecular target: human constitutive proteasome (Beta5) (Homo sapiens (Human), UniProt P28074); test: Determination of Beta5 activity (fluorescence intensity assay, Suc-LLVY-AMC); assay type: biochemical; settings: incubation for 20 minutes
# Protocol: Determination of Beta5 Activity:
# Measurement of Beta5 inhibition is performed in 384 well format based on fluorescence intensity assay.
# as §1, with “constitutive” for “immuno”, “(1.25” for “(0.25”
# as §2
Selectivity LMP7 vs Beta5 [1],pIC50 [1],pIC50 [2],SMILES
+++++ (Selectivity ≥ 150),> 7.30,< 5.30,"C=CC(=O)N(CC(=O)N[C@@H](Cc1ccc(C)cc1C)B(O)O)c1ccccc1F [Compound No. 1, [(1R)-2-(2,4-dimethylphenyl)-1-[[2-(2-fluoro-N-prop-2-enoyl-anilino)acetyl]amino]ethyl]boronic Acid]"
++++ (100 ≤ Selectivity < 150),> 7.30,5.30 to 6.30,"C=CC(=O)N(CC(=O)N[C@@H](Cc1ccc(C)cc1C)B(O)O)c1ccc(F)cc1 [Compound No. 2, [(1R)-2-(2,4-dimethylphenyl)-1-[[2-(4-fluoro-N-prop-2-enoyl-anilino)acetyl]amino]ethyl]boronic Acid]"
+++++ (Selectivity ≥ 150),> 7.30,5.30 to 6.30,"C=CC(=O)N(CC(=O)N[C@@H](Cc1ccc(C)cc1C)B(O)O)c1cccc(F)c1 [Compound No. 4, [(1R)-2-(2,4-dimethylphenyl)-1-[[2-(3-fluoro-N-prop-2-enoyl-anilino)acetyl]amino]ethyl]boronic Acid]"
+++++ (Selectivity ≥ 150),6.30 to 7.30,< 5.30,"C=CC(=O)N(CCC)CC(=O)N[C@@H](Cc1ccc(C)cc1C)B(O)O [Compound No. 6, [(1R)-2-(2,4-dimethylphenyl)-1-[[2-[prop-2-enoyl(propyl)amino]-acetyl]amino]ethyl]boronic Acid]"
++++ (100 ≤ Selectivity < 150),> 7.30,5.30 to 6.30,"C#CC(=O)N(CC(=O)N[C@@H](Cc1ccc(C)cc1C)B(O)O)c1ccccc1 [Compound No. 7, [(1R)-2-(2,4-dimethylphenyl)-1-[[2-(N-prop-2-ynoylanilino)acetyl]-amino]ethyl]boronic Acid]"
+++ (70 ≤ 100),> 7.30,5.30 to 6.30,"C=CC(=O)N(CC(=O)N[C@@H](Cc1ccc(C)cc1C)B(O)O)c1ccc(OC(F)(F)F)cc1 [Compound No. 9, [(1R)-2-(2,4-dimethylphenyl)-1-[[2-[N-prop-2-enoyl-4-(trifluoromethoxy)anilino]acetyl]amino]ethyl]boronic Acid]"
+++++ (Selectivity ≥ 150),> 7.30,5.30 to 6.30,"Cc1ccc(C[C@H](NC(=O)CN(C)C(=O)/C=C/Cl)B(O)O)c(C)c1 [Compound No. 13, [(1R)-1-[[2-[[(E)-3-chloroprop-2-enoyl]-methyl-amino]acetyl]amino]-2-(2,4-dimethylphenyl)ethyl]boronic Acid]"
+++ (70 ≤ 100),> 7.30,5.30 to 6.30,"C=CC(=O)N(CC(=O)N[C@@H](Cc1ccc(C)c(C)c1)B(O)O)c1ccccc1 [Compound No. 17, [(1R)-2-(3,4-dimethylphenyl)-1-[[2-(N-prop-2-enoylanilino)acetyl]-amino]ethyl]boronic Acid]"
+++++ (Selectivity ≥ 150),> 7.30,5.30 to 6.30,"C=CC(=O)N(CC(=O)N[C@@H](Cc1ccc(C)cc1C)B(O)O)c1ccccc1 [Compound No. 26, [(1R)-2-(2,4-dimethylphenyl)-1-[[2-(N-prop-2-enoylanilino)acetyl]-amino]ethyl]boronic Acid]"

# Second part, the molecule before the results:
SMILES,Selectivity LMP7 vs Beta5 [1],pIC50 [1],pIC50 [2]
"C=CC(=O)N(CCC)CC(=O)N[C@@H](Cc1ccc(C)c(C)c1)B(O)O [Compound No. 5, [(1R)-2-(3,4-dimethylphenyl)-1-[[2-[prop-2-enoyl(propyl)amino]-acetyl]amino]ethyl]boronic Acid]",++++ (100 ≤ Selectivity < 150),6.30 to 7.30,< 5.30
"C=CC(=O)N1c2ccccc2CC1C(=O)N[C@@H](Cc1ccc(C)cc1C)B(O)O (stereo partly drawn) [Compound No. 8, [(1R)-2-(2,4-dimethylphenyl)-1-[(1-prop-2-enoylindoline-2-carbonyl)amino]ethyl]boronic Acid]",+++ (70 ≤ 100),> 7.30,5.30 to 6.30
"C=CS(=O)(=O)N(C)CC(=O)N[C@@H](Cc1ccc(C)c(C)c1)B(O)O [Compound No. 10, [(1R)-2-(3,4-dimethylphenyl)-1-[[2-[methyl(vinylsulfonyl)amino]-acetyl]amino]ethyl]boronic Acid]",+++++ (Selectivity ≥ 150),> 7.30,5.30 to 6.30
"C#CC(=O)N(C)CC(=O)N[C@@H](Cc1ccc(C)cc1C)B(O)O [Compound No. 11, [(1R)-2-(2,4-dimethylphenyl)-1-[[2-[methyl(prop-2-ynoyl)amino]-acetyl]amino]ethyl]boronic Acid]",+++ (70 ≤ 100),> 7.30,5.30 to 6.30
"C#CC(=O)N(CC)CC(=O)N[C@@H](Cc1ccc(C)cc1C)B(O)O [Compound No. 12, [(1R)-2-(2,4-dimethylphenyl)-1-[[2-[ethyl(prop-2-ynoyl)amino]acetyl]-amino]ethyl]boronic Acid]",++++ (100 ≤ Selectivity < 150),> 7.30,5.30 to 6.30
"C=CC(=O)N(CC)CC(=O)N[C@@H](Cc1ccc(C)c(C)c1)B(O)O [Compound No. 14, [(1R)-2-(3,4-dimethylphenyl)-1-[[2-[ethyl(prop-2-enoyl)amino]acetyl]-amino]-ethyl]boronic Acid]",+++++ (Selectivity ≥ 150),6.30 to 7.30,< 5.30
"C=CS(=O)(=O)N(C)CC(=O)N[C@@H](Cc1ccc(C)cc1C)B(O)O [Compound No. 15, [(1R)-2-(2,4-dimethylphenyl)-1-[[2-[methyl(vinylsulfonyl)amino]-acetyl]amino]ethyl]boronic Acid]",+++ (70 ≤ 100),> 7.30,5.30 to 6.30
"C=CC(=O)N(C)CC(=O)N[C@@H](Cc1ccc(C)c(C)c1)B(O)O [Compound No. 16, [(1R)-2-(3,4-dimethylphenyl)-1-[[2-[methyl(prop-2-enoyl)amino]-acetyl]amino]ethyl]boronic Acid]",+++++ (Selectivity ≥ 150),> 7.30,< 5.30
"C/C=C\C(=O)N(CC)CC(=O)N[C@@H](Cc1ccc(C)cc1C)B(O)O [Compound No. 18, [(1R)-1-[[2-[[(Z)-but-2-enoyl]-ethyl-amino]acetyl]amino]-2-(2,4-dimethylphenyl)ethyl]boronic Acid]",+++ (70 ≤ 100),6.30 to 7.30,5.30 to 6.30
"CC#CC(=O)N(CC)CC(=O)N[C@@H](Cc1ccc(C)cc1C)B(O)O [Compound No. 19, [(1R)-1-[[2-[but-2-ynoyl(ethyl)amino]acetyl]amino]-2-(2,4-dimethylphenyl)ethyl]boronic Acid]",+++ (70 ≤ 100),> 7.30,5.30 to 6.30
"CC#CC(=O)N(C)CC(=O)N[C@@H](Cc1ccc(C)cc1C)B(O)O [Compound No. 20, [(1R)-1-[[2-[but-2-ynoyl(methyl)amino]acetyl]amino]-2-(2,4-dimethylphenyl)ethyl]boronic Acid]",+ (Selectivity < 50),> 7.30,5.30 to 6.30
"C/C=C(/C)C(=O)N(CC)CC(=O)N[C@@H](Cc1ccc(C)cc1C)B(O)O [Compound No. 21, [(1R)-2-(2,4-dimethylphenyl)-1-[[2-[ethyl-[(Z)-2-methylbut-2-enoyl]amino]acetyl]amino]ethyl]boronic Acid]",++ (50 ≤ Selectivity < 70),6.30 to 7.30,< 5.30
"C/C=C(\C)C(=O)N(CC)CC(=O)N[C@@H](Cc1ccc(C)cc1C)B(O)O [Compound No. 22, [(1R)-2-(2,4-dimethylphenyl)-1-[[2-[ethyl-[(E)-2-methylbut-2-enoyl]-amino]acetyl]amino]ethyl]boronic Acid]",++ (50 ≤ Selectivity < 70),6.30 to 7.30,< 5.30
"C/C=C/C(=O)N(CC)CC(=O)N[C@@H](Cc1ccc(C)cc1C)B(O)O [Compound No. 23, [(1R)-1-[[2-[[(E)-but-2-enoyl]-ethyl-amino]acetyl]amino]-2-(2,4-dimethylphenyl)ethyl]boronic Acid]",+++ (70 ≤ 100),> 7.30,5.30 to 6.30
"CCN(CC(=O)N[C@@H](Cc1ccc(C)cc1C)B(O)O)C(=O)C=C(C)C [Compound No. 24, [(1R)-2-(2,4-dimethylphenyl)-1-[[2-[ethyl(3-methylbut-2-enoyl)amino]-acetyl]amino]ethyl]boronic Acid]",++ (50 ≤ Selectivity < 70),6.30 to 7.30,5.30 to 6.30
"C=CC(=O)N(CC)CC(=O)N[C@@H](Cc1ccc(Cl)cc1)B(O)O [Compound No. 25, [(1R)-2-(4-chlorophenyl)-1-[[2-[ethyl(prop-2-enoyl)amino]acetyl]-amino]ethyl]boronic Acid]",+ (Selectivity < 50),6.30 to 7.30,5.30 to 6.30
